One data set has as its target BCRP (Homo sapiens (Human), UniProt Q9UNQ0). Kind of data set: BCRP MDCKII efflux assay (Assay 7). The format is in vitro ADME. The following applies: dog; efflux ratio Papp(B-A)/Papp(A-B), BCRP MDCKII cells; read-out: Assay 7 Pe Ratio. The method, then: Assay conditions included with and without the BCRP-specific inhibitor, KO143, at a concentration of 0.3 μM to ascertain the contribution of BCRP to the efflux value of the test compound.
Final organic concentration in the assay was 1%.

The target of another data set is EGFR wild type (EGFR WT) (Homo sapiens (Human), UniProt P00533). Put plainly: Cellular Phosphorylation Assay, Assay 5 (EGF-stimulated EGFR phosphorylation, NIH 3T3 cells). Format: cell-based.
Data set [1] addresses ErbB2 with Exon 20 YVMA insertion (HER2-YVMA) (Homo sapiens (Human), UniProt P04626, INS775YVMA). Put plainly: Cellular Phosphorylation Assay, Assay 4 (constitutive ErbB2 phosphorylation, NIH 3T3 cells). Format: cell-based.
The target in a further data set is EGFR (Homo sapiens (Human), UniProt P00533). Kind of data set: ErbB Enzyme Assay (HTRF KinEASE-TK), Assay 3. Format: biochemical.
A further data set has as its target ErbB2 WT (Homo sapiens (Human), UniProt P04626). Kind of data set: ErbB Enzyme Assay (HTRF KinEASE-TK), Assay 2. Format: biochemical.
The target in another data set is MDR1 (P-gp) (Homo sapiens (Human), UniProt P08183). Put plainly: in vitro. The following applies: pig, LLC-PK1.
Setting [2] is: EGF-stimulated EGFR WT phosphorylation.
Setting [3] is: cellular EGFR WT phosphorylation, EGF-stimulated.
The mark [4] stands for this setting: cellular ErbB2 YVMA phosphorylation.

Sequence of ErbB2 with Exon 20 YVMA insertion (HER2-YVMA) (P04626 other isoform, or with tags, fused parts or gaps ins YVMA behind 775): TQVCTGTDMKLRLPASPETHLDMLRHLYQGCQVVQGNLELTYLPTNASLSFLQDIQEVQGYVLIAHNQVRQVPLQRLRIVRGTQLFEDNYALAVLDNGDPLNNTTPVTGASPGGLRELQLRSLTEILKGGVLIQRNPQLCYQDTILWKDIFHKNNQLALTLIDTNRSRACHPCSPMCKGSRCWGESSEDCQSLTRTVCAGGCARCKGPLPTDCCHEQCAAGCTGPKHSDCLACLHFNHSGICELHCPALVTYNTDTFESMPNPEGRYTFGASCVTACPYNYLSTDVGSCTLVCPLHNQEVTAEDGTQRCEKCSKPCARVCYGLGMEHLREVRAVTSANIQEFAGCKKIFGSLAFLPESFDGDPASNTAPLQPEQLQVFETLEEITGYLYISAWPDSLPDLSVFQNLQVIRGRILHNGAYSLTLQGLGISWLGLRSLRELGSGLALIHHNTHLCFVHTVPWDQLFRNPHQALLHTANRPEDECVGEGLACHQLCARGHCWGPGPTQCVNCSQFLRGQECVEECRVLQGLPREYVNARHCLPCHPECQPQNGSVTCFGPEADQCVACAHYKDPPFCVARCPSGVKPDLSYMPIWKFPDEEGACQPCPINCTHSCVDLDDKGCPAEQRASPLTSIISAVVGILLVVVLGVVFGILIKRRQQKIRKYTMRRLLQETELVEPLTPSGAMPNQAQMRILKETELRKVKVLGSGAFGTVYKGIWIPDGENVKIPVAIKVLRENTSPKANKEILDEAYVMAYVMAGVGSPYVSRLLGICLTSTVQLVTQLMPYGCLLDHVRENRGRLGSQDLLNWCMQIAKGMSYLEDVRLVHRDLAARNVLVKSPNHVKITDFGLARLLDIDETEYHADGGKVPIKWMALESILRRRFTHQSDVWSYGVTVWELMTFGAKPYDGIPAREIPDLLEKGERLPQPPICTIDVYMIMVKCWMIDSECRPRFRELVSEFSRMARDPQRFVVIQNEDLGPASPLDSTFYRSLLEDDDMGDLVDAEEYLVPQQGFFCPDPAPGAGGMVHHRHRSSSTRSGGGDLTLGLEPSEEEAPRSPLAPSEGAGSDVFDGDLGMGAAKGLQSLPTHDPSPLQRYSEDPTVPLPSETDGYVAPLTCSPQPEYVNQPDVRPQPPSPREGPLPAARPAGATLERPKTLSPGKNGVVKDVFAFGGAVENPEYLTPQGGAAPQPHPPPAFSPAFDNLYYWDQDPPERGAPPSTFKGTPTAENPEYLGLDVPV
Sequence of EGFR wild type (EGFR WT) (P00533 25-1210): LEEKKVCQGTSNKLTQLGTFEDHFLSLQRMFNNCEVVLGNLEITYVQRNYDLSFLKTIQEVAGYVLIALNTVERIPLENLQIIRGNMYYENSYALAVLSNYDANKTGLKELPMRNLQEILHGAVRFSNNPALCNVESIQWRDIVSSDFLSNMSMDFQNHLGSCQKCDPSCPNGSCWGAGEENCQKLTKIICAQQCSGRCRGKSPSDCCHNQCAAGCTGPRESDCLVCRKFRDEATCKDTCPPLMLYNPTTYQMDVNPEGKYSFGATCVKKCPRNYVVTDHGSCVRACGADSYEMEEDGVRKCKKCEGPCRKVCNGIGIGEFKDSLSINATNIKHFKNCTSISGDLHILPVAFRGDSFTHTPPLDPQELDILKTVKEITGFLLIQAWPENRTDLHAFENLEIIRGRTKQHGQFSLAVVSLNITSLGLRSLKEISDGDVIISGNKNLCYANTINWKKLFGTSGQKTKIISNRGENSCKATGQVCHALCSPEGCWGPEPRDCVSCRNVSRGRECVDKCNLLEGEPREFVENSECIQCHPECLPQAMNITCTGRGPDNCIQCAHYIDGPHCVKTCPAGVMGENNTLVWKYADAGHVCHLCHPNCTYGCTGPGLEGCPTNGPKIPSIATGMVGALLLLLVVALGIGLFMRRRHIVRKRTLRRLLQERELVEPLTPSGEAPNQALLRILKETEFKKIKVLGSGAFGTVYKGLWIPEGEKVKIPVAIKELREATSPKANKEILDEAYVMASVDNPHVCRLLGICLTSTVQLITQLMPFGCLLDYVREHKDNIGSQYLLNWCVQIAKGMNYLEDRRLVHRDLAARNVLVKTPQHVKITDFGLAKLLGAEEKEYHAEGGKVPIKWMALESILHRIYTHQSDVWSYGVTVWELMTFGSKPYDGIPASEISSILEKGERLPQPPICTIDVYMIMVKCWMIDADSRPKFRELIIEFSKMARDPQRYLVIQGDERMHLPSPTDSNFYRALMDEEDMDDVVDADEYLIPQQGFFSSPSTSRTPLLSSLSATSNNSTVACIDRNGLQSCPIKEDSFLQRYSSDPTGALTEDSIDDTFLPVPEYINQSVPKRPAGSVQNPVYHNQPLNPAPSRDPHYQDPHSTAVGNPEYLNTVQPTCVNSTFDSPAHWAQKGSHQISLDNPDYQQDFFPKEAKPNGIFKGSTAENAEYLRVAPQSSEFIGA
Sequence of EGFR (P00533 25-1210): as above
Sequence of ErbB2 WT (P04626 23-1255): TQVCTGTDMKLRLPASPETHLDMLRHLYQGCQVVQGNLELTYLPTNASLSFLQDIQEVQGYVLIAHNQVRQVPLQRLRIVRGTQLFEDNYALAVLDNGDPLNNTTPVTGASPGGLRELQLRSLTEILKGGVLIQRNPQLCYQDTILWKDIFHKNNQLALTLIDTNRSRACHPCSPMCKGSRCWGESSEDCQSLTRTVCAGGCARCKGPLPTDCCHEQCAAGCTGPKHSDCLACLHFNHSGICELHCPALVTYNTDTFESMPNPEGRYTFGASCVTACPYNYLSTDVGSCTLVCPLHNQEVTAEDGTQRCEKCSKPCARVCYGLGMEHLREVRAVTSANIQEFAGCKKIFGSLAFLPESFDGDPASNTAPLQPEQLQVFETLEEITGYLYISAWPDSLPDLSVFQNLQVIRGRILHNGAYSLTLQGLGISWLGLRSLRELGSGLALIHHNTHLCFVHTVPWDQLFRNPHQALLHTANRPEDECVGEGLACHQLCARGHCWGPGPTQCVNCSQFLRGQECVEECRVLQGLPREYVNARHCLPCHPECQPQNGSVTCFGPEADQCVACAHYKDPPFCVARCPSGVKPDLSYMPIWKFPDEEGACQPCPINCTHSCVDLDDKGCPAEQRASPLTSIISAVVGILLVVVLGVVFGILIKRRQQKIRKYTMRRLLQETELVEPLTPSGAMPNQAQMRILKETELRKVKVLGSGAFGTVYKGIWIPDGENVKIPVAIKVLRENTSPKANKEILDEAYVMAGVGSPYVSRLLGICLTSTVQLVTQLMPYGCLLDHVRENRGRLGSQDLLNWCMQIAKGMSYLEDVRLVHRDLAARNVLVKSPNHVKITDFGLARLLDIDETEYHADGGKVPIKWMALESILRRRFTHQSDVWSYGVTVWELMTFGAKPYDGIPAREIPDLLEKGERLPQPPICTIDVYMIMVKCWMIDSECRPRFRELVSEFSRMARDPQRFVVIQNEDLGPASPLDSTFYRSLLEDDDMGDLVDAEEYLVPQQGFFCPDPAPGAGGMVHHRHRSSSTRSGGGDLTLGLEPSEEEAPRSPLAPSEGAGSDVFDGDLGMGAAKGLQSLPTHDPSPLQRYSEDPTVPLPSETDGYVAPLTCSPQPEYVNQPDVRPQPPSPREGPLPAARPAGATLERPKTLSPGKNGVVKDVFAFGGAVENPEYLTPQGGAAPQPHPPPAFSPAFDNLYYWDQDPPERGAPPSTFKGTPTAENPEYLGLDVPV

As for `C=CC(=O)N1C2CC1CN(c1ccc3ncnc(Nc4cc(C)c(Oc5ccn6ncnc6c5)cc4F)c3n1)C2` [Example 43, 1-(3-(4-((4-([1,2,4]triazolo[1,5-a]pyridin-7-yloxy)-2-fluoro-5-methylphenyl)amino)pyrido[3,2-d]pyrimidin-6-yl)-3,6-diazabicyclo[3.1.1]heptan-6-yl)prop-2-en-1-one], the efflux ratio at 2 h, 1 µM was found to be 4.1 on BCRP and 3 on MDR1 (P-gp). Moreover, the IC50 was not below 5000 nM at EGFR wild type (EGFR WT) (setting [2]), 21.3 nM in data set [1] (ErbB2 YVMA phosphorylation), not below 10000 nM at EGFR (EGFR enzyme) and 120 nM against ErbB2 WT (ErbB2 WT enzyme).
As for `C=CC(=O)N1C[C@H]2CC[C@@H]1C[C@@H]2c1ccc2ncnc(Nc3ccc(Oc4ccn5ncnc5c4)c(C)c3F)c2n1` (racemic) [Example 217, rac-1-((1R,4S,5S)-5-(4-((4-([1,2,4]triazolo[1,5-a]pyridin-7-yloxy)-2-fluoro-3-methylphenyl)amino)pyrido[3,2-d]pyrimidin-6-yl)-2-azabicyclo[2.2.2]octan-2-yl)prop-2-en-1-one], the values for the efflux ratio at 2 h, 1 µM on BCRP and on MDR1 (P-gp) were 1.9 and 0.8, respectively. The IC50 against EGFR wild type (EGFR WT) (setting [2]) was 1850 nM; in data set [1] (ErbB2 YVMA phosphorylation), 11.1 nM; on EGFR (EGFR enzyme), 1460 nM; against ErbB2 WT (ErbB2 WT enzyme) it was 18.8 nM.
Regarding `C=CC(=O)N1CCC(Oc2ccc3ncnc(Nc4ccc(Oc5ccc6cn(C)nc6c5)c(Cl)c4F)c3n2)CC1` [Example 9, 1-(4-((4-((3-chloro-2-fluoro-4-((2-methyl-2H-indazol-6-yl)oxy)phenyl)amino)pyrido[3,2-d]pyrimidin-6-yl)oxy)piperidin-1-yl)prop-2-en-1-one], the results for the efflux ratio at 2 h, 1 µM at BCRP and at MDR1 (P-gp) were 2.4 and 1.7, respectively. Further, the IC50 was 840 nM against EGFR wild type (EGFR WT) (setting [2]), 66 nM in data set [1] (ErbB2 YVMA phosphorylation), not below 10000 nM against EGFR (EGFR enzyme) and 977 nM at ErbB2 WT (ErbB2 WT enzyme).
Turning to `C=CC(=O)N1CCCN(c2ccc3ncnc(Nc4ccc(Oc5ccc6c(c5)ncn6C)c(C)c4F)c3n2)CC1(C)C` [Example 69, 1-(4-(4-((2-fluoro-3-methyl-4-((1-methyl-1H-benzo[d]imidazol-5-yl)oxy)phenyl)amino)pyrido[3,2-d]pyrimidin-6-yl)-2,2-dimethyl-1,4-diazepan-1-yl)prop-2-en-1-one], the efflux ratio at 2 h, 1 µM on BCRP turned out to be 2.4; on MDR1 (P-gp), 3. Further, the IC50 against EGFR wild type (EGFR WT) (setting [2]) was not below 5000 nM; in data set [1] (ErbB2 YVMA phosphorylation), 19.9 nM; at EGFR (EGFR enzyme), not below 10000 nM; against ErbB2 WT (ErbB2 WT enzyme), 141 nM.
Take `C=CC(=O)N1C[C@H]2C[C@@H]1CN(c1ccc3ncnc(Nc4ccc(Oc5ccc6c(c5)ncn6C)c(C)c4F)c3n1)C2` [Example 118, 1-((1S,5R)-3-(4-((2-fluoro-3-methyl-4-((1-methyl-1H-benzo[d]imidazol-5-yl)oxy)phenyl)amino)pyrido[3,2-d]pyrimidin-6-yl)-3,6-diazabicyclo[3.2.1]octan-6-yl)prop-2-en-1-one]: the efflux ratio at 2 h, 1 µM at BCRP turned out to be 4.1; on MDR1 (P-gp) it was 2.2. For the same compound, the IC50 on EGFR wild type (EGFR WT) (setting [2]) was not below 5000 nM; in data set [1] (ErbB2 YVMA phosphorylation), 10.1 nM; at EGFR (EGFR enzyme), 6090 nM; against ErbB2 WT (ErbB2 WT enzyme), 54.1 nM.
Take `C=CC(=O)N1[C@H](C)CN(c2ccc3ncnc(Nc4cc(Cl)c(Oc5ccn6ncnc6c5)cc4F)c3n2)C[C@@H]1C` [Example 265]: the efflux ratio at 2 h, 1 µM on BCRP was 3.4; on MDR1 (P-gp) it was 1.2. Besides, the IC50 on EGFR wild type (EGFR WT) (setting [3]) was determined as 4040 nM; in data set [1] (setting [4]), 33.9 nM; on EGFR (EGFR enzyme assay) it was 7760 nM; at ErbB2 WT (ErbB2 WT enzyme assay) it was 17.2 nM.
For `C=CC(=O)N1CCC(c2ccc3ncnc(Nc4ccc(Oc5ccn6ncnc6c5)c(C)c4F)c3n2)CC12CC2` (centres unmarked) [Example 270], the efflux ratio at 2 h, 1 µM on BCRP turned out to be 1.1; on MDR1 (P-gp), 1.6. Besides, the IC50 on EGFR wild type (EGFR WT) (setting [3]) was 494 nM; in data set [1] (setting [4]), 20.1 nM; against EGFR (EGFR enzyme assay) it was 942 nM; at ErbB2 WT (ErbB2 WT enzyme assay), 21 nM.
Consider `C=CC(=O)N1CCN(c2ccc3ncnc(Nc4ccc(Oc5ccn6ncnc6c5)c(Cl)c4F)c3n2)C[C@@H]1C1CC1` [Example 287], for which the efflux ratio at 2 h, 1 µM at BCRP came out at 1.7; on MDR1 (P-gp), 1. Further, the IC50 turned out to be 1960 nM at EGFR wild type (EGFR WT) (setting [3]), 9.8 nM in data set [1] (setting [4]), 1100 nM against EGFR (EGFR enzyme assay) and 12.4 nM against ErbB2 WT (ErbB2 WT enzyme assay).
As to `C=CC(=O)N1CCC(Oc2ccc3ncnc(Nc4ccc(Oc5ccn6ccnc6c5)c(C)c4)c3n2)CC1` [Example 15, 1-(4-((4-((4-(imidazo[1,2-a]pyridin-7-yloxy)-3-methylphenyl)amino)pyrido[3,2-d]pyrimidin-6-yl)oxy)piperidin-1-yl)prop-2-en-1-one], the IC50 against EGFR wild type (EGFR WT) (setting [2]) was 555 nM; in data set [1] (ErbB2 YVMA phosphorylation), 12.8 nM; at EGFR (EGFR enzyme) it was 1680 nM; against ErbB2 WT (ErbB2 WT enzyme), 45.5 nM. On MDR1 (P-gp), the efflux ratio at 2 h, 1 µM came out at 10.2.
The matching figures for `C=CC(=O)N1C[C@@H](c2ccc3ncnc(Nc4cc(C)c(Oc5ccc6c(c5)ncn6C)cc4F)c3n2)C[C@@H]1C` [Example 190, 1-((2S,4S)-4-(4-((2-fluoro-5-methyl-4-((1-methyl-1H-benzo[d]imidazol-5-yl)oxy)phenyl)amino)pyrido[3,2-d]pyrimidin-6-yl)-2-methylpyrrolidin-1-yl)prop-2-en-1-one]: not below 5000 nM, 16 nM, 3800 nM, 41.1 nM and 3.9.
In the same order, the values of `C=CC(=O)N1CCC(N(C)c2ccc3ncnc(Nc4ccc(Oc5ccn6ncnc6c5)c(C)c4F)c3n2)CC1` [Example 32, 1-(4-((4-((4-([1,2,4]triazolo[1,5-a]pyridin-7-yloxy)-2-fluoro-3-methylphenyl)amino)pyrido[3,2-d]pyrimidin-6-yl)(methyl)amino)piperidin-1-yl)prop-2-en-1-one] are not below 5000 nM, 131 nM, 5530 nM, 45.8 nM and 1.9.
On to `C=CC(=O)N1CCC(Oc2ccc3ncnc(Nc4ccc(Oc5ccn6ncnc6c5)c(C)c4F)c3n2)CC1` [Example 17, 1-(4-((4-((4-([1,2,4]triazolo[1,5-a]pyridin-7-yloxy)-2-fluoro-3-methylphenyl)amino)pyrido[3,2-d]pyrimidin-6-yl)oxy)piperidin-1-yl)prop-2-en-1-one], for which the IC50 against EGFR wild type (EGFR WT) (setting [2]) worked out at 1220 nM; in data set [1] (ErbB2 YVMA phosphorylation), 14 nM; against EGFR (EGFR enzyme), 2110 nM; against ErbB2 WT (ErbB2 WT enzyme), 48.3 nM. For the same compound, the efflux ratio at 2 h, 1 µM on MDR1 (P-gp) was 2.7.
In the same order, the values of `C=CC(=O)N1CCC(Oc2ccc3ncnc(Nc4ccc(Oc5cc6nn(C)cc6cn5)c(C)c4)c3n2)CC1` [Example 52, 1-(4-((4-((3-methyl-4-((2-methyl-2H-pyrazolo[4,3-c]pyridin-6-yl)oxy)phenyl)amino)pyrido[3,2-d]pyrimidin-6-yl)oxy)piperidin-1-yl)prop-2-en-1-one] are not below 5000 nM, 34.7 nM, not below 10000 nM, 395 nM and 34.5.
For `C=CC(=O)N1CC(c2ccc3ncnc(Nc4cc(C)c(Oc5ccc6c(c5)ncn6C)cc4F)c3n2)CCC12CC2` (centres unmarked) [Example 196, 1-(6-(4-((2-fluoro-5-methyl-4-((1-methyl-1H-benzo[d]imidazol-5-yl)oxy)phenyl)amino)pyrido[3,2-d]pyrimidin-6-yl)-4-azaspiro[2.5]octan-4-yl)prop-2-en-1-one], the efflux ratio at 2 h, 1 µM on BCRP came to 2.5. For the same compound, the IC50 against EGFR wild type (EGFR WT) (setting [2]) came to 2010 nM; in data set [1] (ErbB2 YVMA phosphorylation), 33.8 nM; against EGFR (EGFR enzyme), 1160 nM; against ErbB2 WT (ErbB2 WT enzyme), 42.9 nM.
Regarding `C=CC(=O)N1C[C@H]2C[C@@H]1CN(c1ccc3ncnc(Nc4ccc(Oc5ccn6ncnc6c5)c(Cl)c4F)c3n1)C2` [Example 304], on BCRP, the efflux ratio at 2 h, 1 µM came to 13.8. The IC50 was 1670 nM against EGFR wild type (EGFR WT) (setting [3]), 11.6 nM in data set [1] (setting [4]), 757 nM against EGFR (EGFR enzyme assay) and 16.9 nM on ErbB2 WT (ErbB2 WT enzyme assay).
As to `C=CC(=O)N1[C@H](C)CN(c2ccc3ncnc(Nc4ccc(Oc5ccc6c(c5)ncn6C)c(C)c4)c3n2)C[C@@H]1C` [Example 106, 1-((2S,6R)-2,6-dimethyl-4-(4-((3-methyl-4-((1-methyl-1H-benzo[d]imidazol-5-yl)oxy)phenyl)amino)pyrido[3,2-d]pyrimidin-6-yl)piperazin-1-yl)prop-2-en-1-one], the efflux ratio at 2 h, 1 µM at BCRP was found to be 10.1. For the same compound, the IC50 is not below 5000 nM against EGFR wild type (EGFR WT) (setting [2]), 6 nM in data set [1] (ErbB2 YVMA phosphorylation), 7790 nM against EGFR (EGFR enzyme) and 18.5 nM against ErbB2 WT (ErbB2 WT enzyme).
In the case of `C=CC(=O)N1CCN(c2ccc3ncnc(Nc4ccc(Oc5ccc6c(c5)ncn6C)c(C)c4F)c3n2)CC1(C)C` [Example 75, 1-(4-(4-((2-fluoro-3-methyl-4-((1-methyl-1H-benzo[d]imidazol-5-yl)oxy)phenyl)amino)pyrido[3,2-d]pyrimidin-6-yl)-2,2-dimethylpiperazin-1-yl)prop-2-en-1-one], on BCRP, the efflux ratio at 2 h, 1 µM was found to be 3.8. Also, the concentration for half-maximal inhibition (IC50) against EGFR wild type (EGFR WT) (setting [2]) was not below 5000 nM; in data set [1] (ErbB2 YVMA phosphorylation), 13.7 nM; at EGFR (EGFR enzyme), not below 10000 nM; on ErbB2 WT (ErbB2 WT enzyme) it was 65.2 nM.
For `C=CC(=O)N1C2CCC1CN(c1ccc3ncnc(Nc4ccc(Oc5ccn6ncnc6c5)c(C)c4F)c3n1)C2` [Example 444], the efflux ratio at 2 h, 1 µM on BCRP was 9. The IC50 against EGFR wild type (EGFR WT) (setting [3]) turned out to be 352 nM; in data set [1] (setting [4]), 5.9 nM; at EGFR (EGFR enzyme assay), 379 nM; at ErbB2 WT (ErbB2 WT enzyme assay), 12 nM.

For the origin of these results see patent publication US12447153B2, “HER2 mutation inhibitors” (Array BioPharma Inc., priority 2021, dated 2025).
